From ChEMBL document CHEMBL1177872, “Inhibitors of the RET tyrosine kinase based on a 2-(alkylsulfanyl)-4-(3-thienyl)nicotinonitrile scaffold” (Eur J Med Chem, 2010)

Experiments:
[1] = biological target: Tyrosine-protein kinase ABL1 (Homo sapiens, UniProt P00519)
Description: Inhibition of human recombinant histidine-tagged ABL (230-517) expressed in Sf9 cells by ELISA

TPC1 = experiment: Antiproliferative activity against human TPC1 cells expressing RET/PCT1 after 72 hrs by [3H]thymidine incorporation assay
cells = details: Homo sapiens, LS174T
Description: Antiproliferative activity against human RET deficient LS 174T cells after 72 hrs by [3H]thymidine incorporation assay

ARO = experiment: Antiproliferative activity against human RET deficient ARO cells after 72 hrs by [3H]thymidine incorporation assay

Chain of Tyrosine-protein kinase ABL1 (P00519 whole entry): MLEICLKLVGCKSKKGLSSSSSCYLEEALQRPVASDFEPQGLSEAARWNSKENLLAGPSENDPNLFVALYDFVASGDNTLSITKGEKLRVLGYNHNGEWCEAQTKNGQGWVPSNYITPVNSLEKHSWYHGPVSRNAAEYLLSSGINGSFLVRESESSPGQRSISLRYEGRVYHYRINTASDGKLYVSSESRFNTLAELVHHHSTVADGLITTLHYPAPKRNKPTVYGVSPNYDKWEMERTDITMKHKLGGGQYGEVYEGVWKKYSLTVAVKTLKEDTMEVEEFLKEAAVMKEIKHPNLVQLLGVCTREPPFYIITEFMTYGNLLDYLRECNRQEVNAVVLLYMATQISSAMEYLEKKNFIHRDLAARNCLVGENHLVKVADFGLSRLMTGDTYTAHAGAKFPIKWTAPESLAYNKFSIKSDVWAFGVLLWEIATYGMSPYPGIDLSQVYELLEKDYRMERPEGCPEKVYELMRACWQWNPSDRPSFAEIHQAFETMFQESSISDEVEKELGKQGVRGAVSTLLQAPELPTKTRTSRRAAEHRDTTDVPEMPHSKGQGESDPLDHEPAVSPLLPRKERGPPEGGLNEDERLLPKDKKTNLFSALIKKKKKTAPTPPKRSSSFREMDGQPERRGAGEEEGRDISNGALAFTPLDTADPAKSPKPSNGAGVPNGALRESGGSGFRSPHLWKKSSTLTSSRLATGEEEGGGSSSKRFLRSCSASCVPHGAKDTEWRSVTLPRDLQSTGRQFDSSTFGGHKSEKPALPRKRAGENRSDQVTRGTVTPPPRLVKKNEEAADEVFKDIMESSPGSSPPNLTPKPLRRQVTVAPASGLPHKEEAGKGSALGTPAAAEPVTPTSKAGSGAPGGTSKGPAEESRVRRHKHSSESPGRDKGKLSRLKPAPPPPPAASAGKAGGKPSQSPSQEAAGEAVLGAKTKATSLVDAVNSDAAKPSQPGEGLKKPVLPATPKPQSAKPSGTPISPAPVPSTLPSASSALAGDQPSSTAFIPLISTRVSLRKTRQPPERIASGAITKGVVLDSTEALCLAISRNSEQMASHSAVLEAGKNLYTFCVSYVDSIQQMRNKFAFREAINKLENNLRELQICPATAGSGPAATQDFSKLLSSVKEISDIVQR

Row | SMILES | IC50 [1] [µM] | IC50 (TPC1) [µM] | IC50 (cells) [µM] | IC50 (ARO) [µM]
1 | N#Cc1c(SCC(=O)c2ccccc2)nc2c(c1-c1ccsc1)CCCC2 | > 150 | > 300 | > 300 | 
2 | N#Cc1c(SCc2ccccc2)nc2c(c1-c1cccs1)CCCC2 | 72 | 17 | 6.2 | 8.5
3 | N#Cc1c(N)nc(SCC(=O)c2ccccc2)c(C#N)c1-c1ccsc1 | 0.29 | > 300 | > 300 | > 300
4 | N#Cc1c(N)nc(SCC(=O)c2ccc(Cl)cc2)c(C#N)c1-c1ccsc1 | 60 | 28 | 92 | 159
5 | N#Cc1c(SCc2ccc(F)cc2)nc2c(c1-c1cccs1)CCCC2 | 74 | 101 | > 300 | > 300
6 | COc1cc2/c(=N/c3ccc(Br)cc3F)nc[nH]c2cc1OCC1CCN(C)CC1 [VANDETANIB] |  | 0.116 |  | 
